According to patent publication US9603364B2 (Dow AgroSciences LLC, priority 2013, dated 2017):

What was measured:
Experiment in all cases: General post-emergent herbicidal activity, foliar application
Assay type in all cases: in vivo
[1] = tested on: Oryza sativa L. (rice); conditions: Oryza sativa, 336 h, scored after 14 days, read-out: % Visual Growth Reduction ORYSA; for plant injury at 35 g/ha: 35 g ai/ha; for plant injury at 70 g/ha: 70 g ai/ha; for plant injury at 140 g/ha: 140 g ai/ha
Protocol: (§1) A weighed amount, determined by the highest rate to be tested, of each test compound was placed in a 25 mL glass vial and was dissolved in 4 mL of a 97:3 v/v (volume/volume) mixture of acetone and dimethyl sulfoxide to obtain concentrated stock solutions which will be referred to as General Purpose Solvent. […] The concentrated stock solutions obtained were diluted with 20 mL of an aqueous mixture containing water, General Purpose Solvent, isopropyl alcohol, Atplus 411F crop oil concentrate, and Triton X-155 surfactant in a 46:42:12:1.0:0.02 v/v ratio to obtain spray solutions containing the highest application rates. Additional application rates were obtained by serial dilution of 12 mL of the high rate solution into a solution containing 2 mL of 97:3 v/v (volume/volume) mixture of acetone and dimethyl sulfoxide and 10 mL of an aqueous mixture containing water, General Purpose Solvent, isopropyl alcohol, Atplus 411F crop oil concentrate, and Triton X-155 surfactant in a 46:42:12:1.0:0.02 v/v ratio to obtain 1/2×, 1/4×, 1/8× and 1/16× rates of the high rate. […] Control plants were sprayed in the same manner with the solvent blank.
(§2) The treated plants and control plants were placed in a greenhouse as described above and watered by sub-irrigation to prevent wash-off of the test compounds. After 14 days, the condition of the test plants as compared with that of the untreated plants was determined visually and scored on a scale of 0 to 100 percent where 0 corresponds to no injury and 100 corresponds to complete kill.

[2] = tested on: Zea mays L. (corn); conditions: 336 h, scored after 14 days, read-out: % Visual Growth Reduction ZEAMX; for plant injury at 35 g/ha: 35 g ai/ha; for plant injury at 70 g/ha: 70 g ai/ha; for plant injury at 140 g/ha: 140 g ai/ha
Protocol: as §1, §2

[3] = tested on: Helianthus annuus L. (sunflower, common); conditions: for pest or weed control at 35 g/ha: 35 g ai/ha; for pest or weed control at 70 g/ha: 70 g ai/ha; for pest or weed control at 140 g/ha: 140 g ai/ha; for GR80 Value HELAN: calculated by probit analysis, dose for 80% visual injury, may be extrapolated
Protocol: as §1, §2
(§3) By applying the well-accepted probit analysis as described by J. Berkson in […], 48, 565 (1953) and by D. Finney in “Probit Analysis” Cambridge University Press (1952), the dose response data gathered as expressed above can be used to calculate GR20, GR50 and GR80 values, which are defined as growth reduction factors that correspond to the effective dose of herbicide required to kill or control 20 percent, 50 percent or 80 percent, respectively, of a target plant. Data not expressed in Table A may have been used to calculate some of the GR80 values in Table B. In some cases, the GR80 values may be extrapolations calculated based on the slope of the dose response curve for individual compounds listed in Table B.

[4] = tested on: Viola tricolor L. (pansy); conditions: for pest or weed control at 35 g/ha: 35 g ai/ha; for pest or weed control at 70 g/ha: 70 g ai/ha; for pest or weed control at 140 g/ha: 140 g ai/ha; for GR80 Value VIOTR: calculated by probit analysis, dose for 80% visual injury, may be extrapolated
Protocol: as §1, §2, §3

[5] = tested on: Euphorbia heterophylla L. (poinsettia, wild); conditions: for pest or weed control at 35 g/ha: 35 g ai/ha; for pest or weed control at 70 g/ha: 70 g ai/ha; for pest or weed control at 140 g/ha: 140 g ai/ha; for GR80 Value EPHHL: calculated by probit analysis, dose for 80% visual injury, may be extrapolated
Protocol: as §1, §2, §3

[6] = tested on: Echinochloa crus-galli (L.) Beauv. (barnyardgrass); conditions: for pest or weed control at 35 g/ha: 35 g ai/ha; for pest or weed control at 70 g/ha: 70 g ai/ha; for pest or weed control at 140 g/ha: 140 g ai/ha; for GR80 Value ECHCG: calculated by probit analysis, dose for 80% visual injury, may be extrapolated
Protocol: as §1, §2, §3

[7] = tested on: Chenopodium album L. (lambsquarters, common); conditions: for pest or weed control at 35 g/ha: 35 g ai/ha; for pest or weed control at 70 g/ha: 70 g ai/ha; for pest or weed control at 140 g/ha: 140 g ai/ha; for GR80 Value CHEAL: calculated by probit analysis, dose for 80% visual injury, may be extrapolated
Protocol: as §1, §2, §3

[8] = tested on: Amaranthus retroflexus L. (pigweed, redroot); conditions: for pest or weed control at 35 g/ha: 35 g ai/ha; for pest or weed control at 70 g/ha: 70 g ai/ha; for pest or weed control at 140 g/ha: 140 g ai/ha; for GR80 Value AMARE: calculated by probit analysis, dose for 80% visual injury, may be extrapolated
Protocol: as §1, §2, §3

[9] = Helianthus annuus, 336 h, foliar post-emergent, scored after 14 days, read-out: % Visual Growth Reduction HELAN
[10] = Viola tricolor, 336 h, foliar post-emergent, scored after 14 days, read-out: % Visual Growth Reduction VIOTR
[11] = Euphorbia heterophylla, 336 h, foliar post-emergent, scored after 14 days, read-out: % Visual Growth Reduction EPHHL
[12] = Echinochloa crus-galli, 336 h, foliar post-emergent, scored after 14 days, read-out: % Visual Growth Reduction ECHCG
[13] = Chenopodium album, 336 h, foliar post-emergent, scored after 14 days, read-out: % Visual Growth Reduction CHEAL
[14] = Amaranthus retroflexus, 336 h, foliar post-emergent, scored after 14 days, read-out: % Visual Growth Reduction AMARE

Structure (SMILES) | plant injury at 35 g/ha [1] | plant injury at 70 g/ha [1] | plant injury at 140 g/ha [1] | plant injury at 35 g/ha [2] | plant injury at 70 g/ha [2] | plant injury at 140 g/ha [2] | pest or weed control at 35 g/ha [3, 9] | pest or weed control at 70 g/ha [3, 9] | pest or weed control at 140 g/ha [3, 9] | GR80 Value HELAN [3] | pest or weed control at 35 g/ha [4, 10] | pest or weed control at 70 g/ha [4, 10] | pest or weed control at 140 g/ha [4, 10] | GR80 Value VIOTR [4] | pest or weed control at 35 g/ha [5, 11] | pest or weed control at 70 g/ha [5, 11] | pest or weed control at 140 g/ha [5, 11] | pest or weed control at 140 g/ha [6, 12] | pest or weed control at 140 g/ha [7, 13] | pest or weed control at 140 g/ha [8, 14] | further results
COC(=O)c1nc(C(C)F)c(Cl)c(N)c1Cl (stereo not drawn) [Compound F10, Methyl 4-amino-3,5-dichloro-6-(1-fluoroethyl)picolinate] | 0% | 0% | 0% | 0% | 0% | 0% | 80% | 85% | 100% | 124 g ai/ha | 0% | 0% | 0% | >140 g ai/ha | 0% | 20% | 30% | 0% | 85% | 100% | GR80 Value EPHHL [5]: >140 g ai/ha; pest or weed control at 35 g/ha [6, 12]: 0%; pest or weed control at 70 g/ha [6, 12]: 0%; GR80 Value ECHCG [6]: >140 g ai/ha; pest or weed control at 35 g/ha [7, 13]: 80%; pest or weed control at 70 g/ha [7, 13]: 85%; GR80 Value CHEAL [7]: 23.7 g ai/ha; pest or weed control at 35 g/ha [8, 14]: 85%; pest or weed control at 70 g/ha [8, 14]: 98%; GR80 Value AMARE [8]: 18.1 g ai/ha
COC(=O)c1nc(C(C)(F)CF)cc(N)c1Cl (stereo not drawn) [Compound F11, Methyl 4-amino-3-chloro-6-(1,2-difluoropropan-2-yl)picolinate] |  |  | 0% |  |  | 0% |  |  | 70% |  |  |  | 0% |  |  |  | 10% | 0% | 0% | 30% | 
COC(=O)c1nc(C(F)F)cc(N)c1Cl [Compound F12, methyl 4-amino-3-chloro-6-(difluoromethyl)picolinate] | 0% | 0% | 0% | 15% | 30% | 60% | 100% | 100% | 100% | 23.1 g ai/ha | 90% | 100% | 100% | 29.2 g ai/ha | 90% | 100% | 100% | 55% | 100% | 100% | plant injury at 280 g/ha ([1]; 280 g ai/ha): 8%; plant injury at 280 g/ha ([2]; 280 g ai/ha): 70%; pest or weed control at 280 g/ha ([3]; Helianthus annuus, 336 h, 280 g ai/ha, foliar post-emergent, scored after 14 days, read-out: % Visual Growth Reduction HELAN): 100%; pest or weed control at 280 g/ha ([4]; Viola tricolor, 336 h, 280 g ai/ha, foliar post-emergent, scored after 14 days, read-out: % Visual Growth Reduction VIOTR): 100%; pest or weed control at 280 g/ha ([5]; Euphorbia heterophylla, 336 h, 280 g ai/ha, foliar post-emergent, scored after 14 days, read-out: % Visual Growth Reduction EPHHL): 100%; GR80 Value EPHHL [5]: 29.2 g ai/ha; pest or weed control at 35 g/ha [6, 12]: 0%; pest or weed control at 70 g/ha [6, 12]: 0%; pest or weed control at 280 g/ha ([6]; Echinochloa crus-galli, 336 h, 280 g ai/ha, foliar post-emergent, scored after 14 days, read-out: % Visual Growth Reduction ECHCG): 80%; GR80 Value ECHCG [6]: 249 g ai/ha; pest or weed control at 35 g/ha [7, 13]: 90%; pest or weed control at 70 g/ha [7, 13]: 100%; pest or weed control at 280 g/ha ([7]; Chenopodium album, 336 h, 280 g ai/ha, foliar post-emergent, scored after 14 days, read-out: % Visual Growth Reduction CHEAL): 100%; GR80 Value CHEAL [7]: <17.5 g ai/ha; pest or weed control at 35 g/ha [8, 14]: 80%; pest or weed control at 70 g/ha [8, 14]: 100%; pest or weed control at 280 g/ha ([8]; Amaranthus retroflexus, 336 h, 280 g ai/ha, foliar post-emergent, scored after 14 days, read-out: % Visual Growth Reduction AMARE): 100%; GR80 Value AMARE [8]: 26.8 g ai/ha
Nc1c(Cl)c(C(=O)O)nc(C(F)F)c1Cl [Compound F13, 4-Amino-3,5-dichloro-6-(difluoromethyl)picolinic acid] | 0% | 0% | 0% | 0% | 0% | 5% | 60% | 75% | 85% | 85.8 g ai/ha | 0% | 0% | 0% | >140 g ai/ha | 100% | 100% | 100% | 10% | 90% | 90% | GR80 Value EPHHL [5]: 21.7 g ai/ha; pest or weed control at 35 g/ha [6, 12]: 0%; pest or weed control at 70 g/ha [6, 12]: 0%; GR80 Value ECHCG [6]: >149 g ai/ha; pest or weed control at 35 g/ha [7, 13]: 90%; pest or weed control at 70 g/ha [7, 13]: 90%; GR80 Value CHEAL [7]: 25.1 g ai/ha; pest or weed control at 35 g/ha [8, 14]: 90%; GR80 Value AMARE [8]: 27.6 g ai/ha
